Results taken from patent US7691898B2 (Kotobuki Pharmaceutical Co., Ltd., priority 2004, dated 2010).

Assays:
NaH2PO4 loaded mice = assay: Inhibitory effect on the elevation of serum phosphate levels in NaH2PO4 loaded mice; type: in vivo; conditions: Mus musculus; male ddY mice, oral, compound 0.5 hours before oral NaH2PO4 load; serum phosphate AUC up to 4 hours
Protocol: EVALUATION OF INHIBITORY EFFECT ON THE ELEVATION OF SERUM PHOSPHATE LEVELS 1N NaH2PO4 LOADED MICE Male ddY mice, aged 6-7 weeks, were fasted overnight and used as 6 mice/group. The compounds suspended in 0.5% methylcellulose were administered orally at a dose of 100 or 300 mg/10 mL/kg. After 0.5 hours, 50 mg/300 uL/mouse of NaH2PO4 solution was administered orally. Blood samples were taken from retro-orbital venousplexus of the mice before administration of the compounds and 0.5, 1, 2 and 4 hours after the NaH2PO4 administration, and serum phosphate concentration was measured using phospha C-test Wako kit (Wako pure chemicals Co. Ctd.). The area under the serum phosphate concentration-time curve (AUC) up to 4 hours after administration of NaH2PO4 was calculated and the inhibitory effect of serum phosphate levels was evaluated.

[1] = test system: Human alkaline phosphatase; assay: Stability test against human alkaline phosphatase; type: in vitro ADME; conditions: for amount of compound (HPLC) after incubation with human alkaline phosphatase: 2 U/mL enzyme, 0.1 M carbonate buffer, 37° C.
Protocol: Compound 42 or 2′-PP was dissolved in dimethyl sulfoxide and the concentration was adjusted to 1×10^−2 M. […] The amounts of each compound were measured by the HPLC method (HPLC condition, column: Inertsil ODS-2, eluent: 10 mM phosphate buffer/CH3CN=8/2, wavelength: 230 nm, flow rate: 1 mL/min).

SMILES	ED30 (NaH2PO4 loaded mice) [mg/kg]	other results
O=C(c1ccc(O)c(Cc2ccc(Oc3ccccc3)cc2)c1)P(=O)(O)O [Compound 49, [4-Hydroxy-3-(4-phenoxybenzyl)benzoyl]phosphonic acid]	17.8	–
CCCCCCCCCCCCCOc1ccc(Cc2ccc(C(=O)P(=O)(O)O)s2)cc1 [Compound 83, [5-(4-n-Tridecanyloxybenzyl)thiophen-2-carbonyl]phosphonic acid]	10.7	–
CCOc1ccc(Cc2cc(C(=O)P(=O)(O)O)ccc2OCCO)cc1 [Compound 57, [3-(4-Ethoxybenzyl)-4-(2-hydroxyethoxy)benzoyl]phosphonic acid]	30.9	–
CC(C)Oc1ccc(Cc2cc(C(=O)P(=O)(O)O)ccc2O)cc1 [Compound 46, [4-Hydroxy-3-(4-i-propoxybenzyl)benzoyl]phosphonic acid]	16.3	–
CCOc1ccc(Cc2ccc(P(=O)(O)O)s2)cc1 [Compound 64, 5-(4-Ethoxybenzyl)-2-thiophenephosphonic acid]	165	–
O=C(c1ccc(O)c(Cc2cc3ccccc3s2)c1)P(=O)(O)O [Compound 54, [3-(Benzo[b]thiophen-2-ylmethyl)-4-hydroxybenzoyl]phosphonic acid]	13.9	–
CSc1ccc(Cc2cc(C(=O)P(=O)(O)O)ccc2O)cc1 [Compound 42, [4-Hydroxy-3-(4-methylthiobenzyl)benzoyl]phosphonic acid]	33.3	amount of compound (HPLC) after incubation with human alkaline phosphatase ([1]; Time 0 hr): 100%; amount of compound (HPLC) after incubation with human alkaline phosphatase ([1]; Time 0.25 hr): 96.3%; amount of compound (HPLC) after incubation with human alkaline phosphatase ([1]; Time 0.5 hr): 96%; amount of compound (HPLC) after incubation with human alkaline phosphatase ([1]; Time 1 hr): 95.8%; amount of compound (HPLC) after incubation with human alkaline phosphatase ([1]; Time 2 hr): 95.5%; stability against human alkaline phosphatase (in words) ([1]; conclusion from Table 1): stable
O=C(c1ccc(Cc2ccc(Cl)cc2)s1)P(=O)(O)O [Compound 75, [5-(4-Chlorobenzyl)thiophen-2-carbonyl]phosphonic acid]	25.6	–
CCOc1ccc(Cc2ccc(CP(=O)(O)O)s2)cc1 [Compound 65, [5-(4-Ethoxybenzyl)thiophen-2-ylmethyl]phosphonic acid]	256	–
CSc1ccc(Cc2ccc(C(=O)P(=O)(O)O)s2)cc1 [Compound 73, [5-(4-Methylthiobenzyl)thiophen-2-carbonyl]phosphonic acid]	4.5	–
CCSc1ccc(Cc2ccc(C(=O)P(=O)(O)O)s2)cc1 [Compound 76, [5-(4-Ethylthiobenzyl)thiophen-2-carbonyl]phosphonic acid]	2	–
CSc1ccc(Cc2cc(C(=O)P(=O)(O)O)ccc2OCCO)cc1 [Compound 60, [4-(2-Hydroxyethoxy)-3-(4-methylthiobenzyl)benzoyl]phosphonic acid]	12.1	–
CCOc1ccc(Cc2cc(CP(=O)(O)O)ccc2O)cc1 [Compound 20, [3-(4-Ethoxybenzyl)-4-hydroxybenzyl]phosphonic acid]	244	–
CCOc1ccc(Cc2cc(C(=O)P(=O)(O)O)ccc2O)cc1 [Compound 38, [3-(4-Ethoxybenzyl)-4-hydroxybenzoyl]phosphonic acid]	44.5	–
O=C(CCc1ccc(O)cc1)c1c(O)cc(O)cc1OP(=O)(O)O [reference compound]	–	amount of compound (HPLC) after incubation with human alkaline phosphatase ([1]; Time 0 hr): 100%; amount of compound (HPLC) after incubation with human alkaline phosphatase ([1]; Time 0.25 hr): 31.4%; amount of compound (HPLC) after incubation with human alkaline phosphatase ([1]; Time 0.5 hr): 21.4%; amount of compound (HPLC) after incubation with human alkaline phosphatase ([1]; Time 1 hr): 16.3%; amount of compound (HPLC) after incubation with human alkaline phosphatase ([1]; Time 2 hr): 1.2%
CCCOc1ccc(Cc2cc(C(=O)P(=O)(O)O)ccc2O)cc1 [Compound 45, [4-Hydroxy-3-(4-n-propoxybenzyl)benzoyl]phosphonic acid]	20.1	–
CCOc1ccc(Cc2ccc(C(=O)P(=O)(O)O)s2)cc1 [Compound 70, [5-(4-Ethoxybenzyl)thiophen-2-carbonyl]phosphonic acid]	20.3	–
